# In patent publication US20250368872A1, “PROTEIN CROSSLINKING AGENT” (CANON KABUSHIKI KAISHA, priority 2023, published 2025):
# Tested on: silk fibroin powder
# Test: Evaluation of adsorptivity of groups containing aromatic rings to proteins having a β-sheet structure
# Type: binding
# Conditions: for Adsorption rate to fibroin (%): 0.02 mM, 0.15 mL methanol solution on 10 mg silk fibroin powder, air-dried, 0.15 mL water, stirred 5 minutes, supernatant absorbance; for Adsorptivity: class of adsorption rate to fibroin
# Experimental: After distillation of methanol by air-drying, 0.15 mL of water was added. After stirring for 5 minutes, the supernatant was collected. The concentration of groups containing aromatic rings in the collected supernatant liquid and the percentage of adsorption of groups containing aromatic rings to fibroin were calculated by absorbance measurement, and the adsorptivity of groups containing aromatic rings to proteins having a β-sheet structure was evaluated by the following criteria.
# “Evaluation A” and “Evaluation B” indicate the level at which groups containing aromatic rings adsorb strongly to proteins having a β-sheet structure, and “Evaluation C” indicates the low adsorptivity of groups containing aromatic rings.
# • A: 90% or more • B: 60% or more but less than 90% • C: Less than 60%
Compound,Adsorption rate to fibroin (%),Adsorptivity
Thioflavin T acid [reference compound],91%,A (90% or more)
O=C(O)CCOc1ccccc1-c1nc2ccccc2s1 [Compound 4],71%,B (60% or more but less than 90%)
O=C(O)CCNc1ccc(-c2nc3ccccc3s2)cc1 [Compound 2],79%,B (60% or more but less than 90%)
